Assay results reported in the supplement of paper PMC10307832.

Columns and labels:
Test in all cases: relative viability (nuclei count vs DMSO), 5 days (fraction); higher = more cells survive
RO-3306 + Navitoclax = compound: C1=CC2=C(C=CC(=C2)C=C3C(=O)NC(=NCC4=CC=CS4)S3)N=C1 [RO-3306] + CC1(C)CCC(c2ccc(Cl)cc2)=C(CN2CCN(c3ccc(C(=O)NS(=O)(=O)c4ccc(N[C@H](CCN5CCOCC5)CSc5ccccc5)c(S(=O)(=O)C(F)(F)F)c4)cc3)CC2)C1 [Navitoclax] (partner 0.5 µM)
In short: (§1)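 For relative viability, nuclei counts in treated wells were divided by those in vehicle wells. Lung cancer cell lines had been pin-tool dosed in 1536-well plates the day after seeding and cultured for 5 days, then fixed and stained in one step (final 0.05% Triton X-100, 1% formaldehyde, 1 ug/ml Hoechst) and imaged at 4×. Doses were one drug alone or a fixed anchor-drug dose plus five library-drug doses (not always all listed) in √10 steps, and values are duplicate-plate medians.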

RO-3306 + Decitabine = compound: C1=CC2=C(C=CC(=C2)C=C3C(=O)NC(=NCC4=CC=CS4)S3)N=C1 [RO-3306] + Nc1ncn([C@H]2C[C@H](O)[C@@H](CO)O2)c(=O)n1 [Decitabine] (partner 2 µM)
In short: as §1

[1] = compound: O=S(=O)(c1ccccc1)N(CC(F)(F)F)c1ccc(C(O)(C(F)(F)F)C(F)(F)F)cc1 + Cc1nc(NC(=O)N2CCC[C@H]2C(N)=O)sc1-c1ccnc(C(C)(C)C(F)(F)F)c1 [Alpelisib] (partner 2 µM)
In short: as §1

[2] = compound: O=S(=O)(c1ccccc1)N(CC(F)(F)F)c1ccc(C(O)(C(F)(F)F)C(F)(F)F)cc1 + Cc1cc(Nc2cc(N3CCN(C)CC3)nc(Sc3ccc(NC(=O)C4CC4)cc3)n2)n[nH]1 [Tozasertib] (partner 0.1 µM)
In short: as §1

UMC-11
relative viability (RO-3306 + Navitoclax; first compound 0.01 µM): 0.325 | relative viability (RO-3306 + Navitoclax; first compound 0.03162 µM): 0.312 | relative viability (RO-3306 + Navitoclax; first compound 0.1 µM): 0.305 | relative viability (RO-3306 + Navitoclax; first compound 0.3162 µM): 0.321 | relative viability (RO-3306 + Navitoclax; first compound 1 µM): 0.319 | relative viability (RO-3306 + Decitabine; first compound 0.01 µM): 0.569 | relative viability (RO-3306 + Decitabine; first compound 0.03162 µM): 0.58 | relative viability (RO-3306 + Decitabine; first compound 0.1 µM): 0.613 | relative viability (RO-3306 + Decitabine; first compound 0.3162 µM): 0.607 | relative viability (RO-3306 + Decitabine; first compound 1 µM): 0.583 | relative viability ([1]; first compound 0.8 µM): 1.24 | relative viability ([1]; first compound 2.53 µM): 0.98 | relative viability ([1]; first compound 8 µM): 1.25 | relative viability ([2]; first compound 0.8 µM): 0.215 | relative viability ([2]; first compound 2.53 µM): 0.22 | relative viability ([2]; first compound 8 µM): 0.237
